Biological target: T1, Nox4 (Homo sapiens, UniProt Q9NPH5)
T1 construct: expressed in transfected cells
T1 sequence (Q9NPH5 1-578): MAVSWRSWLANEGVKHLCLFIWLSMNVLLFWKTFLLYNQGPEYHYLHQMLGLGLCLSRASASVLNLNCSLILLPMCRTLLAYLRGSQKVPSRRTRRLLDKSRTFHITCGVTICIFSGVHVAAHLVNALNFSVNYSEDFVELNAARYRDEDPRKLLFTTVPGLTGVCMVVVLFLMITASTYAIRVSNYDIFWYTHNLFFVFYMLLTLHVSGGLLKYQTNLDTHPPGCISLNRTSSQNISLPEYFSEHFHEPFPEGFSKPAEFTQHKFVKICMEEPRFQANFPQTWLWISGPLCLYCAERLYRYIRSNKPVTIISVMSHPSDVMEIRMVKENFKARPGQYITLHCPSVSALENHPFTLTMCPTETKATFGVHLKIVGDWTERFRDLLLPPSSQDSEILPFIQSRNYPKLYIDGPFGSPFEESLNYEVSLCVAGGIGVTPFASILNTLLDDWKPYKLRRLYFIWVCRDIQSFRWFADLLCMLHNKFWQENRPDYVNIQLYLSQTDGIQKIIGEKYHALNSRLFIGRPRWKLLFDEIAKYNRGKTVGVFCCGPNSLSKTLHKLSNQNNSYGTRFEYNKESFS
T1 sequence (P13498 1-195 partner): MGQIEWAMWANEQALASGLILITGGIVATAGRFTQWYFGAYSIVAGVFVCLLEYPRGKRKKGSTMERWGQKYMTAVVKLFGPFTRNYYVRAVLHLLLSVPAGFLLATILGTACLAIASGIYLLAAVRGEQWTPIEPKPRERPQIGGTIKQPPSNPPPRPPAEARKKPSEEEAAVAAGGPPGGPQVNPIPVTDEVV
Experiment: Inhibition of Nox4-dependent H2O2 production in HEK/Nox4 cells, Amplex Red assay
Format: cell-based
Details: 1 h, HEK/Nox4 cells, DMSO vehicle = 1.000, n = 3-10, read-out: H2O2 production relative to vehicle control, Mean; for remaining activity at 1 µM: 1 μM final concentration; for remaining activity at 5 µM: 5 μM final concentration; for remaining activity at 10 µM: 10 μM final concentration
Experimental: A high-throughput screening (HTS) assay was established for Nox4 inhibition, utilizing HEK293 cells that stably over-express Nox4 (HEK/Nox4 cells), which generate high levels of H2O2(Cheng G et al, Gene: 2001, p. 131-140). Over 30,000 compounds have been screened and medicinal chemistry efforts have led to the synthesis of numerous analogs and the identification of a chemically distinct series of selective Nox4 inhibitors. […] IC-50 was evaluated for UANox048 (FIG. 1B).
HEK cells stably transfected to overexpress Nox4 were treated with varying concentrations of test compounds, DPI (all-Nox inhibitor positive control), or DMSO (vehicle control) and incubated for 1 h (FIG. 1). (FIG. 1A) H2O2 presence was evaluated by Amplex Red assay. […] Values represent means±SEM; n=4. P values were calculated by student's two-tailed t test. *p<0.05, **p<0.01, *** p<0.001.

| SMILES | remaining activity at 1 µM [%] | remaining activity at 5 µM [%] | remaining activity at 10 µM [%] |
| --- | --- | --- | --- |
| CC(CNC(=O)c1csc(-c2ccccc2)n1)N1CCc2ccccc21 (stereo not drawn) [UANOX055, N-(2-(indolin-1-yl)propyl)-2-phenylthiazole-4-carboxamide] | 90.2 | 90.8 | 86.8 |
| CC(CNC(=O)c1csc(-c2ccc(C(F)(F)F)cc2)n1)N1CCc2ccccc21 (stereo not drawn) [UANOX056, N-(2-(indolin-1-yl)propyl)-2-(4-(trifluoromethyl)phenyl)thiazole-4-carboxamide] | 95.9 | 88.4 | 83.4 |
| O=S(=O)(c1ccc(OC(F)(F)F)cc1)N1CCN(CCN2CCc3ccccc32)CC1 [UANOX062, 1-(2-(4-((4-(trifluoromethoxy)phenyl)sulfonyl)piperazin-1-yl)ethyl)indoline] | 88.7 | 75.8 | 66.4 |
| CCN(CC)S(=O)(=O)N1CCN(CCN2CCc3ccccc32)CC1 [UANOX063, N,N-diethyl-4-(2-(indolin-1-yl)ethyl)piperazine-1-sulfonamide] | 90.2 | 71.9 | 66.5 |
| O=S(=O)(c1ccc(F)cc1)N1CCN(CCN2CCc3ccccc32)CC1 [UANOX064, 1-(2-(4-((4-fluorophenyl)sulfonyl)piperazin-1-yl)ethyl)indoline] | 86.3 | 75.7 | 72.4 |
| CCN(CC)C(=O)N1CCN(CCN2CCc3ccccc32)CC1 [UANOX066] | 95.3 | 72.2 | 73.1 |
| Fc1ccccc1CN1CCN(CCN2CCc3ccccc32)CC1 [UANOX067, 1-(2-(4-(2-fluorobenzyl)piperazin-1-yl)ethyl)indoline] | 93.9 | 91.2 | 85.1 |
| O=S(=O)(NCCN1CCc2ccccc21)c1ccc(Oc2ccc(C(F)(F)F)cn2)cc1 [UANOX080, N-(2-(indolin-1-yl)ethyl)-4-((5-(trifluoromethyl)pyridin-2-yl)oxy)benzenesulfonamide] | 85.5 | 60.1 | 49.1 |
| CCN(CC)S(=O)(=O)NCC(C)(C)N1CCc2ccccc21 [UANOX083, N—(N,N-diethylaminosulfonyl)-2-(indolin-1-yl)-2-methylpropane-1-amine] | 82.3 | 73 | 66.5 |
| CC(C)(CNS(=O)(=O)c1ccc(Oc2ccccc2)cc1)N1CCc2ccccc21 [UANOX085, N-(2-(indolin-1-yl)-2-methylpropyl)-4-phenoxybenzenesulfonamide] | 92.7 | 83.5 | 73.6 |
| CC(C)(CNS(=O)(=O)c1ccc(Oc2ccc(C(F)(F)F)cn2)cc1)N1CCc2ccccc21 [UANOX088] | 102 | 90.3 | 79.6 |
| O=C(CN1CCN(c2ncccn2)CC1)N1CCc2ccccc21 [UANOX0192, 1-(indolin-1-yl)-2-(4-(pyrimidin-2-yl)piperazin-1-yl)ethan-1-one] | 96.4 | 111 | 108 |
| COc1cccc(-c2ccc3c(c2)CCN3C(C)CNS(=O)(=O)N2CCN(C)CC2)c1 (stereo not drawn) [UANOX0254, N-(2-(5-(3-methoxyphenyl)indolin-1-yl)propyl)-4-methylpiperazine-1-sulfonamide] | 87.8 | 88 | 76.3 |

Next, values leading:

| remaining activity at 1 µM [%] | remaining activity at 5 µM [%] | remaining activity at 10 µM [%] | SMILES |
| --- | --- | --- | --- |
| 91.4 | 77.9 | 69.3 | CC(CNS(=O)(=O)c1ccc(Oc2ccc(C(F)(F)F)cn2)cc1)N1CCc2ccccc21 (stereo not drawn) [UANOX070, N-(2-(indolin-1-yl)propyl)-4-((5-(trifluoromethyl)pyridin-2-yl)oxy)benzenesulfonamide] |
| 90.8 | 85.6 | 77 | CC(CNS(=O)(=O)c1ccc(Oc2ccccc2)cc1)N1CCc2ccccc21 (stereo not drawn) [UANOX071, N-(2-(indolin-1-yl)propyl)-4-phenoxybenzenesulfonamide] |
| 94.2 | 75.9 | 74.4 | CC(CNS(=O)(=O)c1ccc(C#N)cc1)N1CCc2ccccc21 (stereo not drawn) [UANOX073] |
| 82.3 | 72.1 | 67.7 | O=S(=O)(NCCN1CCc2ccccc21)c1ccc(C(F)(F)F)cc1 [UANOX075, 4-trifluoromethyl-N-(2-(indolin-1-yl)ethyl)benzenesulfonamide] |
| 83.2 | 72 | 66.2 | O=S(=O)(NCCN1CCc2ccccc21)c1ccc(OC(F)(F)F)cc1 [UANOX076, 4-trifluoromethoxy-N-(2-(indolin-1-yl)ethyl)benzenesulfonamide] |
| 89.6 | 65.1 | 58.4 | O=S(=O)(NCCN1CCc2ccccc21)c1ccc(Oc2ccccc2)cc1 [UANOX079, N-(2-(indolin-1-yl)ethyl)-4-phenoxybenzenesulfonamide] |
| 88.8 | 67 | 55.8 | O=S(=O)(NCCN1CCc2ccccc21)c1ccc(F)c(F)c1 [UANOX081, 3,4-difluoro-N-(2-(indolin-1-yl)ethyl)benzenesulfonamide] |
| 90.8 | 70.7 | 60.6 | N#Cc1ccc(S(=O)(=O)NCCN2CCc3ccccc32)cc1 [UANOX082, 4-cyano-N-(2-(indolin-1-yl)ethyl)benzenesulfonamide] |
| 90.3 | 77.5 | 67.5 | CC(C)(CNS(=O)(=O)c1ccc(C(F)(F)F)cc1)N1CCc2ccccc21 [UANOX084, N-(2-(indolin-1-yl)-2-methylpropyl)-4-(trifluoromethyl)benzenesulfonamide] |
| 90.7 | 81.6 | 71.4 | CC(C)(CNS(=O)(=O)c1ccc(F)cc1)N1CCc2ccccc21 [UANOX086, 4-fluoro-N-(2-(indolin-1-yl)-2-methylpropyl)benzenesulfonamide] |
| 99.7 | 88.3 | 74.1 | CC(C)(CNS(=O)(=O)c1ccc(F)c(F)c1)N1CCc2ccccc21 [UANOX087, 3,4-difluoro-N-(2-(indolin-1-yl)-2-methylpropyl)benzenesulfonamide] |
| 101 | 83.6 | 70.1 | COc1ccc(S(=O)(=O)NCC(C)(C)N2CCc3ccccc32)cc1 [UANOX089, N-(2-(indolin-1-yl)-2-methylpropyl)-4-methoxybenzenesulfonamide] |
| 104 | 88.7 | 74.5 | CC(C)(CNS(=O)(=O)c1ccc(OC(F)(F)F)cc1)N1CCc2ccccc21 [UANOX090, N-(2-(indolin-1-yl)-2-methylpropyl)-4-(trifluoromethoxy)benzenesulfonamide] |
